Assay results published in patent US6242428A, “Nucleoside analogs and uses in treating Plasmodium falciparum infection” (Unisearch Limited, priority 1998, dated 2001).
Where two headings read alike, the source gives them in different places.

Legend:
[1] = Solubility remark in the in vitro testing; conditions: Tables 1 and 6
[2] = system: P. falciparum strain W2 (chloroquin resistant); assay: U.S. Army Antimalarial Test Program in vitro screen, strain W2; assay type: cell-based, Plasmodium falciparum; conditions: 15 dimers, D6 and W2 stated together
Excerpt: (§1) Fifteen L-nucleoside dimers (L-101, L-103, L-103A, L-107, L-110, L-111, L-112, L-114, L-117, L-120, L-122, L-124, L-125, L-133 & L-138) from Lipitek's library were submitted for in vitro screen to the U.S. Army Antimalarial Test Program (for the structures of the compounds, see FIG. 7). The compounds have been tested for their activity against two P. falciparum strains: D6 (chloroquin non-resistant) and W2 (chloroquin resistant).

[3] = system: P. falciparum; assay: In vitro toxicity against P. falciparum in culture (radiolabelled hypoxanthine incorporation / lactate dehydrogenase assay); assay type: cell-based, Plasmodium falciparum, FCQ27; conditions: for toxicity against P. falciparum, in words: statement in the transport and metabolism study
Procedure: P. falciparum, FCQ27, was maintained in culture using the techniques described by Trager & Jensen (W. Traqer and J. B. Jensen, Science, 193 673-675 (1976)). Cultures containing 2% hematocrit suspensions of parasitized human type O^+ erythrocytes in RPMI 1640 medium, supplemented with 25 mM HEPES-KOH, pH 7.2, 25 mM NaHCO3 and 10% human type O^+ serum (v/v) are maintained in modular incubator chambers at 37° C. in a gas mixture of 5% O2, 5% CO2 and 90% N2. The isolate of P. falciparum used in these experiments was FCQ27, routinely maintained in synchronized or asynchronous in vitro cultures at low hematocrit.
The potential toxicity of nucleoside analogues against P. falciparum in culture was tested in microtitre plates over the range of drug concentrations for 24 hours. The procedures for monitoring parasite viability is well established (A. M. Gero, H. V. Scott, W. J. O'Sullivan and R. I. Christopherson, Mol. Biochem. Parasitol. 34, 87-89 (1989)) and is based on radiolabelled hypoxanthine or isoleucine incorporation. The incorporation of [G-^3 H]hypoxanthine into the nucleic acids of P. falciparum was used to assess the viability of the parasite in vitro. Microculture plates were prepared with each well containing 225 μl of a 2% hematocrit culture of asynchronous parasited erythrocytes (1% parasitized cells). Each plate, containing varying concentrations of the drug to be studied (up to 200 μM final concentration for initial screen), was incubated for 24 h at 37° C. in a gas mixture of 5% O2, 5% CO2 and 90% N2, at which point [G-^3 H] hypoxanthine was added to each well and the incubation continued under identical conditions for a further 18-20 h. The control infected cells (i.e. without drug), routinely reached a parasitemia of 6-8% before harvesting. Expediency was aided by 96-well plate counter using lactate dehydrogenase for the drug susceptibility assay (L. K. Basco, F. Marguet, M. T. Makler and J. Lebbras, Exp. Parasitol. 80, 260-271 (1995); M. T. Makler and D. J. Hinrichs; Am. J. Trop. Med. Hyg. 48, 205-210 (1993)). This assay gave the identical results to the hypoxanthine technique. In addition, for each experiment, microscopic counting of Giemsa stained thin slides was used as a control.
The biological screen involved evaluation of the compounds against the protozoan P. falciparum in in vitro culture. The range of drug concentrations was used independently by two assays. One, radiolabelled hypoxanthine incorporation into the nucleic acid of P. falciparum, and the other, more expedient assay, a 96-well plate susceptibility assay using lactate dehydrogenase. Both assays gave identical results. In addition, microscopic counting of Giemsa stained thin slides was used as a control. Examples of experimental curves are attached as Appendix 2. The biological tests were done at several concentrations. The highest concentration was 200 μM, the compounds were considered active at concentrations less than 40 μM.

[4] = system: P. falciparum infected erythrocytes (trophozoites); assay type: in vitro ADME, human erythrocytes infected with Plasmodium falciparum
Procedure: (§2) The metabolism of the L-nucleoside conjugates was studied by HPLC analysis. The primary aim was to determine their ability to be catabolized by parasite purine salvage enzymes. Some effect on the purine metabolic pools was also observed.
(§3) For each HPLC determination 200 μL of packed cells of 80-90% trophozoite infected cells were used. These were isolated from in vitro cultures by synchronization of the parasites in in vitro cultures using sterile D-sorbitol (L. Lambros and J. P. Vanderberg, Parasitol. 65, 418-420 (1979)) followed by separation of the trophozoites from non infected erythrocytes by Percoll gradients as described previously (A. M. Gero, H. V. Scott, W. J. O'Sullivan and R. I. Christopherson, Mol. Biochem. Parasitol. 34, 87-89 (1989)). Trophozoites were incubated at 37° C. for 2 hours with each compound to be tested. Compounds were incubated with both whole infected cells as whole and lyzed uninfected normal erythrocytes to determine:
a) entry to the cell (whether they were transported);
Drug incubation was terminated by centrifugation through silicon oil using the method of Upston and Gero (J. M. Upston and A. M. Gero, Biochem. Biophys. Acta. 1236, 249-258 (1995)). This procedure separated intact trophozoites from extracellular non-transported drug solution.
(§4) The metabolism of nucleosides with potential chemotherapeutic activity was assessed by the analysis of cytoplasmic samples by reverse phase ion-pair high performance liquid chromatography (R. S. Toguzov, Y. V. Tikhonov, A. M. Pimenov, V. Prokudin, Journal of Chromatography, I. Biomedical Appl. 434, 447-453 (1988)). Nucleotides, nucleosides and bases were separated by this HPLC method.
It has been established that transport and uptake in parasite invaded cells is different from that of normal blood erythrocytes (A. M. Gero & A. M. Wood, In: Pyrine & Pyrimidine Methabolism in Man VII, Part A. (R. A. Harkness et al., Eds) Plenum Press, NY, 169-172 (1991)). Invasion by the malaria parasite comprises the cell membrane, allowing penetration of unnatural substances of various size and shape, whereas normal cells are very selective in uptake. It was shown that L-nucleosides and their derivatives easily penetrate invaded cells, while they have a very slow rate of uptake into normal cells, if they enter at all. In order to obtain preliminary data on transport, uptake and metabolism, the HPLC method was used to analyze the following 10 Lipitek compounds: L-101, L-103, L-109, L-111, L-117, L-133, L-138, GCl 1007, GCl 1027, GCl 1069.
(§5) These compounds were chosen for the identification of possible metabolites. In this experiment the compounds were incubated with both whole infected cells, and with whole and lysed uninfected cells, followed by the separation of unreacted compound and HPLC analysis.

[5] = system: P. falciparum infected erythrocytes (trophozoites); assay type: in vitro ADME, human erythrocytes infected with Plasmodium falciparum; remark: listed apart in the source
Procedure: as §2, §3
b) the metabolic effect within the cell (was the compound metabolized);
as §4, §5

[6] = system: P. falciparum strain D6 (chloroquin non-resistant); assay: U.S. Army Antimalarial Test Program in vitro screen, strain D6; assay type: cell-based, Plasmodium falciparum; conditions: 15 dimers, D6 and W2 stated together
Excerpt: as §1

[7] = system: human prostate phosphotransferase; conditions: cited from earlier work
[8] = system: erythrocyte infected with P. falciparum; conditions: cited from earlier work
[9] = system: normal erythrocytes and other cell types; conditions: cited from earlier work
[10] = Plasmodium falciparum, 24 h, Table 1, 24 h drug exposure, up to 200 μM, read-out: IC50
[11] = Plasmodium falciparum, Table 2, FUdR linkage position 5', read-out: IC50
[12] = Plasmodium falciparum, Table 4, Phosphate "bridge" O=P--O, read-out: IC50
[13] = Plasmodium falciparum, Table 3, β-L configuration of the L-nucleoside, read-out: IC50

| Molecule | activity ranking in words, strain W2 [2] | In vitro activity against P. falciparum, in words [3] | IC50 [3, 10] [µM] | IC50 [3, 11] [µM] | IC50 [3, 12] [µM] | toxicity against P. falciparum, in words [3] | entry to the infected cell [4] | activity ranking in words, strain D6 [6] | also measured |
| --- | --- | --- | --- | --- | --- | --- | --- | --- | --- |
| β-L-FUdR 3'-5'SATE [B05] | – | – | – | – | – | – | – | – | Solubility (printed in the IC50/ID50 column) [1]: Solubility problem |
| O=c1[nH]c(=O)n([C@H]2C[C@H](OP(=O)(O)OC[C@H]3O[C@@H](n4cc(F)c(=O)[nH]c4=O)C[C@@H]3O)[C@@H](CO)O2)cc1F [L-101, [β-D]2 -FUdR] | most active | most active | 15 | 15 | 15 | toxic against P. falciparum | entered the infected cells | most active | metabolism by the infected cells [5]: metabolized by the infected cells |
| O=c1ccn([C@H]2O[C@@H](CO)[C@H](O)[C@@H]2O)c(=O)[nH]1 [β-L-uridine] | – | – | – | – | – | – | – | – | phosphorylation at the 5'-position [7]: not phosphorylated at the 5'-position |
| α-L-FUdR 3'-5'SATE [B07] | – | – | – | – | – | – | – | – | Solubility (printed in the IC50/ID50 column) [1]: Solubility problem |
| O=c1[nH]c(=O)n([C@@H]2C[C@@H](OP(=O)(O)OC[C@H]3O[C@@H](n4cc(F)c(=O)[nH]c4=O)C[C@@H]3O)[C@H](CO)O2)cc1F [L-110, 3'-O-(β-D-5-fluoro-2'-deoxyuridinyl)-β-L-5-fluoro-2'-deoxyuridine] | most active | – | 20 | 20 | – | – | – | most active | IC50 [3, 13]: 20 µM |
| O=c1[nH]c(=O)n([C@@H]2C[C@@H](O)[C@H](COP(=O)(O)O[C@@H]3C[C@@H](n4cc(F)c(=O)[nH]c4=O)O[C@H]3CO)O2)cc1F [L-109, 3'-O-(β-L-5-fluoro-2'-deoxyuridinyl)-β-L-5-fluoro-2'-deoxyuridine] | – | did not exhibit any activity | > 200 | – | – | not toxic | could not enter the infected cell | – | – |
| Nc1ncnc2c1ncn2[C@@H]1C[C@@H](OP(=O)(O)OC[C@H]2O[C@@H](n3cc(F)c(=O)[nH]c3=O)C[C@@H]2O)[C@H](CO)O1 [L-138, β-L-dA, β-D-FUdR] | most active | most active | 5 | 5 | 5 | toxic against P. falciparum | entered the infected cells | most active | IC50 [3, 13]: 5 µM; IC50 ([3]; Plasmodium falciparum, Table 4, Phosphorothioate "bridge" S=P--O, read-out: IC50): 100 µM; metabolism by the infected cells [5]: metabolized by the infected cells |
| Nc1ncnc2c1ncn2[C@H]1O[C@@H](CO)[C@H](O)[C@@H]1O [GCI 1032, β-L-adenosine] | – | – | – | – | – | – | – | – | IC50 ([3]; Plasmodium falciparum, 24 h): > 200 µM; transport into infected erythrocyte [8]: selectively transported into an erythrocyte infected with P. falciparum; permeability/uptake of normal erythrocytes and other cells [9]: completely impermeable |
| O=c1ccn([C@@H]2C[C@@H](OP(=O)(O)OC[C@H]3O[C@@H](n4cc(F)c(=O)[nH]c4=O)C[C@@H]3O)[C@H](CO)O2)c(=O)[nH]1 [L-117] | most active | – | 35 | – | 35 | toxic against P. falciparum | entered the infected cells | most active | – |
| O=c1[nH]c(=O)n([C@H]2C[C@@H](O)[C@H](CO)O2)cc1F [GCI 1027, 2'-deoxy-α-L-5-fluorouridine] | – | no activity | > 200 | – | – | toxic against P. falciparum | entered the infected cells | – | IC50 ([3]; Plasmodium falciparum, Erythrocyte, 24 h, Table 6, SATE derivatives of FUdR, read-out: ID50 (the source's name)): > 200 µM |
| β-L-dG, β-D-FUdR [L-133] | most active | most active | – | – | – | toxic against P. falciparum | entered the infected cells | most active | IC50 ([3]; Table 1, 24 h drug exposure, up to 200 μM, read-out: IC50): 14 µM; IC50 ([3]; Table 2, FUdR linkage position 5', read-out: IC50): 14 µM; metabolism by the infected cells [5]: metabolized by the infected cells |
| O=c1[nH]c(=O)n([C@H]2C[C@@H](OP(=O)(O)OC[C@H]3O[C@@H](n4cc(F)c(=O)[nH]c4=O)C[C@@H]3O)[C@H](CO)O2)cc1F [L-103] | – | – | 20 | 20 | 20 | toxic against P. falciparum | entered the infected cells | – | IC50 ([3]; Plasmodium falciparum, Table 3, α-L configuration of the L-nucleoside, read-out: IC50): 20 µM |
